In EP1282414B1, “FELBAMATE DERIVED COMPOUNDS FOR TREATING NEUROPATHIC PAIN” (University of Virginia Patent Foundation, priority 2000, dated 2001):

What was measured:
[1] = LC/MS quantification of felbamate and metabolites in patient urine; format: in vivo, patients
Description: Preparation of Patient Urine Samples. Urine samples were obtained from patient volunteers undergoing felbamate therapy for control of epileptic seizures and under the care of physicians at either the University of Virginia (Charlottesville, Virginia) or the EpiCare Center (Memphis, Tennessee). Urine samples were diluted four fold with distilled water (this was done prior to overnight shipment for samples requiring shipping) and placed in an orbital shaking water bath for ∼ 20 min at 37 °C to insure that all of the analytes were in solution. 500 µL of this diluted sample were removed and added to 100 µL of a mixture of the four deuterated internal standards. […] After mixing, 200 µL were removed and added to 20 µL of 20% H0Ac. This acidified sample was then applied to a preconditioned Waters "Oasis" solid phase extraction cartridge (Waters Corp., Woburn, MA). The cartridge was washed with 2 mL 0.1% HOAc followed by 3 mL 10% CH3CN/90% water (0.1 %) H0Ac. The analytes and internal standards were then eluted with 3 mL 30% CH3CN:70% (0.1 %) HOAc. This fraction was then analyzed by LC/MS without further manipulation.
LC/MS Analysis of Urine Samples for Metabolite Quantification. LC/MS analysis was performed using a Waters 2690 HPLC equipped with an autosampler and a Waters 486 tunable absorbance detector. This LC system was interfaced to a Finnigan MAT LCQ ion trap mass spectrometer. A 10 µL injection of the fraction from solid phase extraction was applied to a Waters Symmetry C8 reversed phase column (33% CH3CN:67% (0.1%) H0Ac, 2.1 mm x 150 mm, 0.2 mL/min). The post-column flow was directed through a Waters 486 tunable absorbance detector (10 µL flow cell, λ = 214 nm) which was used for qualitative assessment of the sample and not for quantitation. The flow was then directed to the electrospray ionization source of the LCQ.
The mass spectrometer was programmed to collect data in full scan mode from 190 - 320 m/z and was tuned to maximize the signal from the analytes under the HPLC conditions. The values for the electrospray parameters were as follows: heated capillary temperature = 180°C; spray voltage = 5.6 kV; capillary voltage = 20 V; sheath gas (nitrogen) flow rate = 70; auxillary gas (helium) flow rate = 20. The automatic gain control (AGC) was on with a target ion count of 7 x 10^7 ions and a maximum ion inject time of 150 ms. […]
Quantification was achieved by integration of the peaks from the mass chromatogram for each analyte using software (Navigator 1.1) provided with the LCQ. The area (expressed as counts x seconds) of the peak for each metabolite was compared to the area for its corresponding deuterated internal standard. As the absolute amount of internal standard added per mL of urine was known, the absolute amount of analyte per mL of urine could be determined.

[2] = tested on: painful peripheral neuropathy; details: rat model of painful peripheral neuropathy; cited from earlier work
[3] = patients on felbamate monotherapy; cited from earlier work
[4] = Stability of oxazinane-dione at relevant pH; format: physicochemical
Description: It is anticipated, therefore, that the oxazinane-dione 9 is responsible for some aspects of felbamate's efficacy in vivo. As patients undergoing felbamate therapy for seizure control ingest large quantities of felbamate (grams per day), even a 1 - 2% conversion to a pharmacologically active metabolite could have significant effects. […] In light of the possibility that the oxazinane-dione 9 could be a metabolic precursor to the major human metabolite, acid carbamate 4, it may be formed in significant quantities (the acid carbamate was reported to represent ∼ 12% of a dose). […] Also included in this class are cyclic congeners 21 and 22, which may be formed from felbamate derivatives (see scheme II). Also included is 20, which may be an unknown metabolite of felbamate 1 and could be produced from felbamate derivative 12 by the cytochrome P450 metabolism.

[5] = urine of patients on felbamate therapy, 34 samples

For `CC(=O)N[C@@H](CSCC(CO)c1ccccc1)C(=O)O` (stereo partly shown) [Nac-alcohol], which “average ratio of Nac-alcohol to Nac-acid” value [1, 5] is on record?
The value was 6.4.

And the “ratio of Nac-alcohol to Nac-acid (range over patients)” value [1, 5]?
Its value is 2- 14.

What does the source list for `NC(=O)OCC(COC(N)=O)c1ccccc1` [felbamate, 2-phenyl-1,3-propanediol dicarbamate]?
amount of felbamate excreted per mL of urine ([1]; patient with total daily dose of 3.6 grams of felbamate (lowest of range)): 819 ± 8.5 nmol/mL; amount of felbamate excreted per mL of urine ([1]; patient with total daily dose of 6.0 grams of felbamate (highest of range)): 10,064 ± 515 nMoles/mL; effect on measures of pain (in words) [2]: significant reductions in all measures of pain; Weight loss [3]: 4-5%

For `O=C1NC(=O)C(c2ccccc2)CO1` (stereo not shown) [oxazinane-dione 9], which “stability at relevant pH (in words)” value [4] is on record?
The value was “unstable”.
